The values below come from patent publication US6056958A, “Method of treatment of arterial and venous thromboembolic disorders” (Dupont Pharmaceuticals, priority 1997, dated 2000).

By IC50 is commonly meant the concentration that gives 50% inhibition.

One data set concerns the target T1, αv /β3 receptor (Homo sapiens, UniProt P05106+P06756).
T1 construct: The αv /β3 receptor was isolated from human placental extracts prepared using octylglucoside; from tissue
As to the kind of experiment: αv/β3-Biotinylated Vitronectin Binding Assay. The conditions noted are these: for IC50: inhibition of vitronectin binding to purified αv/β3; for Relative Binding Affinity for αv /β3 Relative to GPIIb/IIIa: ratio of IC50 values (GPIIb/IIIa over αv/β3). An excerpt: Compounds may be tested for their ability to block binding of vitronectin to the αv /β3 receptor and to block the binding of fibrinogen to GPIIb/IIIa receptor in the αv /β3 -Biotinylated Vitronectin Binding Assay and GPIIb/IIIa Receptor-Biotinylated Fibrinogen Binding Assay described below.
αv /β3 -Biotinylated Vitronectin Binding Assay
The αv /β3 receptor was isolated from human placental extracts prepared using octylglucoside. The extract was passed over an anti-αv /β3 monoclonal antibody (LM609) affinity column (prepared using LM609 and Affigel 10). The column was subsequently washed extensively at pH 7 and pH 4.5 followed by elution at pH 3. The resulting sample was concentrated by wheat germ agglutinin chromatography to provide a αv /β3 -containing sample which gave two bands on SDS-PAGE which were confirmed as αv /β3 by western blotting.
The affinity purified αv /β3 protein as described above was diluted at different levels and plated to 96 well plates (about 15 ng of αv /β3 protein per well). ELISA detection of αv /β3 -bound biotinylated vitronectin was performed as described below using fixed concentration of biotinylated vitronectin (approximately 80 nM/well). This αv /β3 receptor preparation contains the αv /β3 with no detectable levels of αv /β5 according to the gel and according to effects of blocking antibodies for the αv /β3 or αv /β5 in the ELISA.
A submaximal concentration of biotinylated vitronectin was selected based on concentration response curves with fixed αv /β3 receptor concentration and variable concentrations of biotinylated vitronectin.
The purified αv /β3 receptor is diluted with coating buffer (20 mM Tris HCl, 150 mM NaCl, 2.0 mM CaCl2, 1.0 mM MgCl2.6H2 O, 1.0 mM MnCl2.4H2 O) and coated (100 μL/well) on Costar (3590) high capacity 96-well plates overnight at 4° C. The coating solution is discarded and the plates washed once with blocking/binding buffer (B/B buffer: 50 mM Tris HCl, 100 mM NaCl, 2.0 mM CaCl2, 1.0 mM MgCl2.6H2 O, 1.0 mM MnCl2.4H2 O). The plate-immobilized αv /β3 receptor is then blocked (200 μl/well) with 3.5% BSA in B/B buffer for 2 hours at room temperature. After washing once with 1.0% BSA in B/B buffer, biotinylated vitronectin (100 μL) and either test compound (inhibitor) (11 μL) or B/B buffer w/1.0% BSA (11 μL) is added to each well. The plates are incubated 2 hours at room temperature. The plates are washed twice with B/B buffer and incubated 1 hour at room temperature with anti-biotin alkaline phosphatase (100 μL/well) in B/B buffer containing 1.0% BSA. The plates are washed twice with B/B buffer and alkaline phosphatase substrate (100 μL) is added. Color is developed at room temperature. Color development is stopped by addition of 2N NaOH (25 μL/well) and absorbance is read at 405 nm.
The inhibitory binding constant (Ki) of test agents 30 may be calculated under this assay system using Michaelis-Menten analysis. The IC50 is the concentration of test substance needed to block 50% of the vitronectin binding to the αv /β3 receptor. The IC50 for the inhibition of binding of vitronectin to the αv /β3 receptor was determined based on time averaged values for the inhibition of vitronectin binding. Thus, the inhibition of vitronectin binding for each concentration of test compound was measured every 30 seconds over a 2 hour period and the average value of inhibition of vitronectin binding over such 2 hour period was used for the determination of the IC50.

In another data set the test system is Platelet Aggregation. As to the kind of experiment: Platelet Aggregation Assay (in vitro, ADP-induced, platelet-rich plasma). In kind it is cell-based, mongrel dogs or human. As to the method: Platelet Aggregation Assay
Venous blood was obtained from anesthetized mongrel dogs or from healthy human donors who were drug-free and aspirin-free for at least two weeks prior to blood collection. Blood was collected into citrated Vacutainer tubes. The blood was centrifuged for 15 minutes at 150× g (850 RPM in a Sorvall RT6000 Tabletop Centrifuge with H-1000 B rotor) at room temperature, and platelet-rich plasma (PRP) was removed. The remaining blood was centrifuged for 15 minutes at 1500× g ([…]) at room temperature, and platelet-poor plasma (PPP) was removed. Samples were assayed on an aggregometer (PAP-4 Platelet Aggregation Profiler), using PPP as the blank (100% transmittance). 200 μL of PRP (5×10^8 platelets/mL) were added to each micro test tube, and transmittance was set to 0%. 20 μl of ADP (10 μM) was added to each tube, and the aggregation profiles were plotted (% transmittance versus time). Test agent (20 μL) was added at different concentrations prior to the addition of the platelet agonist. Results are expressed as % inhibition of agonist-induced platelet aggregation.

Data set [1] can be described thus: Bleeding Time in anesthetized dogs (tongue incision). The conditions noted are these: dog, IV, saline 3-5.
Procedure: A Simplate device (Organo Teknika) was applied to the surface of the tongue to make a uniform incision and blood was blotted with filter paper at 30 seconds intervals until bleeding completely stopped, with a 15 minutes cutoff time. Bleeding time was assessed before and at different intervals post-administration of test agent.

Non-standard residues stand in square brackets, D forms with d. Residues, ends and D or L forms follow the SMILES beside them. 3Amb = NCc1cccc(C(=O)O)c1

T1 sequence (P06756 31-889 limits assumed): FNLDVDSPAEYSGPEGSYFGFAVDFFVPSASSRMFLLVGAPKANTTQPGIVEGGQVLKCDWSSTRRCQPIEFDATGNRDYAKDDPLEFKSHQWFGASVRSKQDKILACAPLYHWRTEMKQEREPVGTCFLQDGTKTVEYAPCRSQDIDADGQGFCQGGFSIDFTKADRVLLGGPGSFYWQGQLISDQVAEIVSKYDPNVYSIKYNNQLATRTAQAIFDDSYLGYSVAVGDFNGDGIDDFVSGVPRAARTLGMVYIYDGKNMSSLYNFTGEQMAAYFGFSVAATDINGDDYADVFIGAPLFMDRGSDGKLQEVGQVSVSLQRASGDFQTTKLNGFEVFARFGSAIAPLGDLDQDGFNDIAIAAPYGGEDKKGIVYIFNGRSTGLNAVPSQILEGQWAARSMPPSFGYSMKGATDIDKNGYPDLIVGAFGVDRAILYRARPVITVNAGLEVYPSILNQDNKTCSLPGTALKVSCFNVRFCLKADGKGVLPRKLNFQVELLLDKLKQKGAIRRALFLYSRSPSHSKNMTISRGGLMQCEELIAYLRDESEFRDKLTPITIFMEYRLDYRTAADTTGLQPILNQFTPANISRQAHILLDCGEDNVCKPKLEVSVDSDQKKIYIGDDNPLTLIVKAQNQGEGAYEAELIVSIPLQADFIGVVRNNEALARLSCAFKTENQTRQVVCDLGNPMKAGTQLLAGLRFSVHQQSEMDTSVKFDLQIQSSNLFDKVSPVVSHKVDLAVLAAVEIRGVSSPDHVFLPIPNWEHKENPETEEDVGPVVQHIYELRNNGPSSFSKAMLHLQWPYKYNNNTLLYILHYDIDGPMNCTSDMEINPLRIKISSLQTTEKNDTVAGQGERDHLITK
T1 sequence (P06756 891-1048 partner limits assumed): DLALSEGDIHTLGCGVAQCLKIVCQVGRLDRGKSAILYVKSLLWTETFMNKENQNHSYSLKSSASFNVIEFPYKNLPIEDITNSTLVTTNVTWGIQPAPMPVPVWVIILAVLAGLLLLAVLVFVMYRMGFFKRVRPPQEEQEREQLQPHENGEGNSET
T1 sequence (P05106 27-788): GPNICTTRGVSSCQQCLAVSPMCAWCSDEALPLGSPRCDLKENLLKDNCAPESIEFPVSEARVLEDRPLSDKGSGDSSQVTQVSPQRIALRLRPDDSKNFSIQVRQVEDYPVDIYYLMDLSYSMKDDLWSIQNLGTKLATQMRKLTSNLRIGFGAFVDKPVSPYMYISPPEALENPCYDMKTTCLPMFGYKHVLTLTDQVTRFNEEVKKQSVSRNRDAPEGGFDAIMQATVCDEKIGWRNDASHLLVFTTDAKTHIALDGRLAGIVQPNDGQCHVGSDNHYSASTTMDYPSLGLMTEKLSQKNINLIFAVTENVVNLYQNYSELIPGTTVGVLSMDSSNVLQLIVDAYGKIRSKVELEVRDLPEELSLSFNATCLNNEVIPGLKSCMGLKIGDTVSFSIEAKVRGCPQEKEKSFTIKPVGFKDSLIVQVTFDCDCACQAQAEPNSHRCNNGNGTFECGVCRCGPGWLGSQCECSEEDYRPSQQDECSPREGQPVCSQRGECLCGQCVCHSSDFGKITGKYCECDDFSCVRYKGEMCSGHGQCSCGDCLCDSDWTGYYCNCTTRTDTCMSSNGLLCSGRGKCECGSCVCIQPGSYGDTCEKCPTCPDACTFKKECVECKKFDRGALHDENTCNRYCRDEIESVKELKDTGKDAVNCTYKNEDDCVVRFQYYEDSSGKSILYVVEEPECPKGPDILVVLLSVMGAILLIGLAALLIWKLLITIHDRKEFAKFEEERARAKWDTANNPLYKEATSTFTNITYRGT

Consider `C[C@@H]1NC(=O)c2cccc(c2)CNC(=O)[C@H](CC(=O)O)NC(=O)CNC(=O)[C@H](CCCNC(=N)N)NC1=O` [Compound A, cyclo-(Ala-Arg-Gly-Asp-Mamb)] (cyclo(RGD[3Amb]A)), for which the IC50 on αv /β3 receptor is 0.0038 µM; with Platelet Aggregation, 18 µM. Further, the “Relative Binding Affinity for αv /β3 Relative to GPIIb/IIIa” value on αv /β3 receptor turned out to be 107. Besides, the “Bleeding Time” value in data set [1] (1 mg/kg) lay in the range of 3 to 4 min; in data set [1] (3 mg/kg), 3 to 4 min; in data set [1] (10 mg/kg) it was 5 to 6 min.

Turning to `N=C(N)NCCC[C@@H]1NC(=O)[C@@H]2CCCN2C(=O)c2cccc(c2)CNC(=O)[C@H](CC(=O)O)NC(=O)CNC1=O` [Compound B, cyclo-(Pro-Arg-Gly-Asp-Mamb)] (cyclo(RGD[3Amb]P)), on αv /β3 receptor, the IC50 was 0.0007 µM and the “Relative Binding Affinity for αv /β3 Relative to GPIIb/IIIa” value is listed as 2171. Further, the IC50 in the data set with Platelet Aggregation is 44 µM.
